Measurements reported in paper PMC7170309, “Imidazopyridine-fused [1,3]diazepinones: modulations of positions 2 to 4 and their impacts on the anti-melanoma activity” (Journal of Enzyme Inhibition and Medicinal Chemistry, 2020).
Read-outs that look alike come from different tables or passages of the source.

Columns and labels:
A375 melanoma cells = assay: Neutral red uptake (NRU) viability assay, A375; assay type: cell-based, human; settings: for IC50: Homo sapiens, A-375, 72 h, mean ± SD of three experiments; for cytotoxic activity on A375 (in words): up to 40 µM
Method: (§1) Melanoma human cancer cell line (A375 and MDA-MB-435) were obtained from ATCC. The NIH-3T3 cell line was generously gifted by the ANSM (French National Agency for Medicines and Health Products Safety, Vendargues, France). Cells were cultured in Dulbecco’s Modified Eagle Medium (DMEM, Sigma Aldrich) supplemented with 10% heat-inactivated foetal calf serum (FCS, Gibco), 2 mM glutamax (Gibco), 100 IU/mL penicillin G sodium (Sigma Aldrich), 100 lU/mL streptomycin sulphate (Sigma Aldrich). The cells were allowed to grow at 37 °C in a fully humidified atmosphere containing 5% CO2.
(§2) A viability assay was used to evaluate the cytotoxic activity on A375 and MDA-MB-435 melanoma cells as previously described. According to OCDE/ICCVAM guidance n°129, NRU assay was also used to evaluate the toxicity on the non-cancerous NIH-3T3 cells. Cells were seeded at a final concentration of 2000 cells/well (A375), 3000 cells/well (NIH-3T3) or 7500 cells/well (MDA-MB-435) in 96-well microtiter plates for 24 h. Then, cells were exposed to two negative controls (1% DMSO in culture medium (vehicle) and culture medium alone), or to different compounds freshly dissolved in DMSO, in a range of concentration from 0.01 to 40 µM (six wells per concentration). After 72 h of incubation, cells were stained with new medium containing 50 µg/mL of neutral red (3-amino-7-dimethylamino-2-methylphenazine hydrochloride, Sigma Aldrich) at 37 °C for 2 h. The neutral red medium solution was then removed and the wells were washed with PBS. Finally, 100 µL of solution containing ethanol, acetic acid and water (50/1/49 v/v/v respectively) were added into the wells and the absorbance was measured at 540 nm using the microplate reader 352 Multiscan MS (Labsystems). Cell survival rates were normalised to the absorbance values of untreated control cells. IC50 was obtained using a logistic regression model on Graphpad Prism 5.0 software. Results are given as the mean ± standard deviation (SD) of three independent experiments. Statistical analysis was performed using the Student’s t-test.

[1] = tested on: MDA-MB-435 melanoma cells; assay: Neutral red uptake (NRU) viability assay, MDA-MB-435; assay type: cell-based, human; settings: for IC50: Homo sapiens, MDA-MB-435, 72 h, mean ± SD of three experiments; for IC50 / cytotoxic activity on MDA-MB-435 (in words): NRU assay; for cytotoxic activity on MDA-MB-435 (in words): up to 40 µM; for times less active on MDA-MB-435 than on A375 cells: ratio of NRU IC50 values
Method: as §1, §2

[2] = Calculated physicochemical parameters (molsoft cheminformatic tool); settings: predicted
Method: Data set of physicochemical properties (cLogP, TPSA and molecular volume, Table 2) were calculated using the online available molsoft cheminformatic tool[23]. IC50 values of the compounds included in the test are presented in Table 1 for the correlations between IC50 and physicochemical properties of compounds modified in position 2 (Figure 2), and in Table S1 (SI) for the correlations between in vitro anti-cancer activity of JMV5038, compound 5 and […] on the NCI cell line panel (Figure 4). Pearson’s correlation coefficient r and level of significant p values were calculated using Origin Pro 2019.

[3] = tested on: NIH-3T3 non-cancerous cells; assay: Neutral red uptake (NRU) toxicity assay, NIH-3T3; assay type: cell-based; settings: non-cancerous mouse fibroblasts
Method: as §1, §2
Then, all active compounds on the two melanoma cell lines (IC50 < 40 µM) were assessed on the NIH-3T3 mouse fibroblast cell line, in order to check the toxicity of our compounds on non-cancerous cells. […] As a possible modification of the mechanism of action was hypothesised for these two derivatives (see above), this phenomenon could probably be also correlated with the cytotoxicity observed on the NIH-3T3 cell line.

[4] = tested on: MDA-MB-435 melanoma cells; set-up: method as in PMID 27871038; settings: previously described naphthyl analogues; read-out: IC50 on MDA-MB-435 cell line; cited from earlier work
[5] = Hydrolysis of ester 19 into acid 21 in the presence of melanoma cells and culture medium (HPLC-MS); assay type: in vitro ADME; settings: after 72 h in the presence of melanoma cells and culture medium
Source text: Then, we turned our attention to the SAR study of the position 4 of the diazepine ring, keeping constant the 4-bromophenyl group at R^2 (i.e. compounds 13–17 and 19–22). […] Introduction of a ramified isobutyl chain (compound 15) led also to a loss of the activity (entry 13, Table 1). […] In the same way, a less flexible chain bearing an alkyne group (compound 14) was not tolerated, as well as a long chain (compound 22) (Table 1, entries 12 and 20 respectively).

| SMILES | IC50 (A375 melanoma cells) [µM] | melting point [°C] | IC50 [1] [µM] | IC50 ([3]; Mus musculus, NIH3T3, 72 h) [µM] | further results |
| --- | --- | --- | --- | --- | --- |
| C#Cc1ccc(C2=Nc3nc4ccccn4c3C(=O)[C@H](C)N2)cc1 [4′, (4S)-4-methyl-2–(4-ethynylphenyl)-3,4-dihydro-5H-pyrido[1’,2’:1,2]imidazo[4,5-d][1,3]diazepin-5-one] | 10.2 ± 0.55 | 128 to 129 | 5.14 ± 0.08 | > 40 | molecular volume increase compared to JMV5038 [2]: 2% |
| C#CC[C@@H]1NC(c2ccc(Br)cc2)=Nc2nc3ccccn3c2C1=O [Compound 14, (4S)-4-propargyl-2-(4-bromophenyl)-3,4-dihydro-5H-pyrido[1’,2’:1,2]imidazo[4,5-d][1,3]diazepin-5-one] | > 40 |  | > 30 |  |  |
| [N-]=[N+]=NCCCC[C@H]1NC(c2ccc(Br)cc2)=Nc2nc3ccccn3c2C1=O [Compound 17, (4R)-4-(4-azidobutyl)-2-(4-bromophenyl)-3,4-dihydro-5H-pyrido[1’,2’:1,2]imidazo[4,5-d][1,3]diazepin-5-one] | 8.54 ± 0.22 |  | 30.9 ± 0.11 | ~10 | IC50 ([3]; 72 h): 13.7 ± 0.34 µM |
| [N-]=[N+]=NCCCC[C@@H]1NC(c2ccccc2)=Nc2nc3ccccn3c2C1=O [Compound 18, (4S)-4-(4-azidobutyl)-2-phenyl-3,4-dihydro-5H-pyrido[1’,2’:1,2]imidazo[4,5-d][1,3]diazepin-5-one] | > 40 | 116 to 117 | > 40 |  | cytotoxic activity on A375 (in words) (A375 melanoma cells): totally inactive; cytotoxic activity on MDA-MB-435 (in words) [1]: totally inactive |
| C[C@@H]1NC(c2ccc(C#C[Si](C)(C)C)cc2)=Nc2nc3ccccn3c2C1=O |  | 115 to 116 |  |  |  |
| C[C@@H]1NC(c2coc3ccccc23)=Nc2nc3ccccn3c2C1=O [Compound 7, (4S)-4-methyl-2-benzofuran-3-yl-3,4-dihydro-5H-pyrido[1’,2’:1,2]imidazo[4,5-d][1,3]diazepin-5-one] | 8.47 ± 0.21 | 164 to 165 | 25.92 ± 0.17 | > 40 | times less active on MDA-MB-435 than on A375 cells [1]: around 3 |
| C[C@@H]1NC(c2ccc3ncccc3c2)=Nc2nc3ccccn3c2C1=O [Compound 10, (4S)-4-methyl-2-quinolin-6-yl-3,4-dihydro-5H-pyrido[1’,2’:1,2]imidazo[4,5-d][1,3]diazepin-5-one] | 9.76 ± 0.95 | 165 to 166 | 35.49 ± 0.21 | > 40 | times less active on MDA-MB-435 than on A375 cells [1]: around 3 |
| CC1NC(c2cccc3ccccc23)=Nc2nc3ccccn3c2C1=O (stereo not drawn) [1-naphthyl derivative] |  |  |  |  | IC50 [4]: 1.4 µM |
| CC1NC(c2ccc3ccccc3c2)=Nc2nc3ccccn3c2C1=O (stereo not drawn) [2-naphthyl derivative] |  |  |  |  | IC50 [4]: 1.4 µM |
| C[C@@H]1NC(c2c[nH]c3ccccc23)=Nc2nc3ccccn3c2C1=O [9′, (4S)-4-methyl-2-indol-3-yl-3,4-dihydro-5H-pyrido[1’,2’:1,2]imidazo[4,5-d][1,3]diazepin-5-one] | > 40 | 164.5 to 165.5 | > 40 |  | cytotoxic activity on A375 (in words) (A375 melanoma cells): totally inactive; cytotoxic activity on MDA-MB-435 (in words) [1]: totally inactive |
| O=C(O)C[C@@H]1NC(c2ccc(Br)cc2)=Nc2nc3ccccn3c2C1=O [Compound 21, (4S)-[2-(4-bromophenyl)-5-oxo-4,5-dihydro-3H-pyrido[1’,2’:1,2]imidazo[4,5-d][1,3]diazepin-4-yl]acetic acid] | > 40 |  | > 40 |  | cytotoxic activity on A375 (in words) (A375 melanoma cells): inactive; cytotoxic activity on MDA-MB-435 (in words) [1]: inactive |
| C[C@@H]1NC(c2ccc(C(=O)c3ccccc3)cc2)=Nc2nc3ccccn3c2C1=O [Compound 6, (4S)-4-methyl-2-(4-benzoylphenyl)-3,4-dihydro-5H-pyrido[1’,2’:1,2]imidazo[4,5-d][1,3]diazepin-5-one] | > 40 | 132 to 133 | > 40 |  | cytotoxic activity on A375 (in words) (A375 melanoma cells): totally inactive; cytotoxic activity on MDA-MB-435 (in words) [1]: totally inactive |
| C[C@@H]1NC(c2ccc3ccccc3n2)=Nc2nc3ccccn3c2C1=O [Compound 11, (4S)-4-methyl-2-quinolin-2-yl-3,4-dihydro-5H-pyrido[1’,2’:1,2]imidazo[4,5-d][1,3]diazepin-5-one] | 15.6 ± 0.7 | 170 to 171 | 30.71 ± 0.19 | > 40 | times less active on MDA-MB-435 than on A375 cells [1]: around 3 |
| O=C1c2c(nc3ccccn23)N=C(c2ccc(Br)cc2)N2CCC[C@@H]12 [Compound 20, 7–(4-bromophenyl)-9,10,11,11a-tetrahydro-12H-pyrido[2’,1’:2,3]imidazo[4,5-f]pyrrolo[1,2-c][1,3]diazepin-12-one] | > 40 |  | > 40 |  |  |
| CCCC[C@@H]1NC(c2ccc(Br)cc2)=Nc2nc3ccccn3c2C1=O [Compound 13, (4S)-4-butyl-(4-bromophenyl)-3,4-dihydro-5H-pyrido[1’,2’:1,2]imidazo[4,5-d][1,3]diazepin-5-one] | 15.3 ± 1.29 |  | 30.83 ± 0.09 | > 40 |  |
| C#CCCC(=O)NCCCC[C@@H]1NC(c2ccc(Br)cc2)=Nc2nc3ccccn3c2C1=O [Compound 22, (4S)-N-{4-[2-(4-bromophenyl)-5-oxo-4,5-dihydro-3H-pyrido[1’,2’:1,2]imidazo[4,5-d][1,3]diazepin-4-yl]butyl}pent-4-ynamide] | > 40 |  | > 40 |  |  |
| C[C@@H]1NC(c2cn(C(=O)OC(C)(C)C)c3ccccc23)=Nc2nc3ccccn3c2C1=O [Compound 9, (4S)-4-methyl-2-(1-boc-indol-3-yl)-3,4-dihydro-5H-pyrido[1’,2’:1,2]imidazo[4,5-d][1,3]diazepin-5-one] |  | 155 to 157 |  |  |  |
| CC(C)C[C@@H]1NC(c2ccc(Br)cc2)=Nc2nc3ccccn3c2C1=O [Compound 15, (4S)-4-isobutyl-2-(4-bromophenyl)-3,4-dihydro-5H-pyrido[1’,2’:1,2]imidazo[4,5-d][1,3]diazepin-5-one] | > 40 | 72 to 73 | > 30 |  |  |
| O=C(C[C@@H]1NC(c2ccc(Br)cc2)=Nc2nc3ccccn3c2C1=O)OCc1ccccc1 [Compound 19, (4S)-benzyl [2-(4-bromophenyl)-5-oxo-4,5-dihydro-3H-pyrido[1’,2’:1,2]imidazo[4,5-d][1,3]diazepin-4-yl]acetate] | 9.78 ± 0.83 | 72.5 to 73.5 | 19.4 ± 0.64 | > 40 | hydrolysis rate (conversion into acid 21) [5]: 65.5% |
| C[C@@H]1NC(c2ccc3oc(=O)ccc3c2)=Nc2nc3ccccn3c2C1=O [Compound 12, (4S)-4-methyl-2-coumarin-6-yl-3,4-dihydro-5H-pyrido[1’,2’:1,2]imidazo[4,5-d][1,3]diazepin-5-one] | > 40 | 132.5 to 133.5 | > 40 |  | cytotoxic activity on A375 (in words) (A375 melanoma cells): totally abolished the activity; cytotoxic activity on MDA-MB-435 (in words) [1]: totally abolished the activity |
